Assay: Human HepG2 cell viability assay in 384 well format
Assay type: toxicity, cell-based
Parameters: dose 125 nL, time 70.5 hour; cytotoxicity at 70.5 h: concentration not given beside the values
Settings: HepG2 cells, read-out: Inhibition

Structure (SMILES) | cytotoxicity at 70.5 h [%]
Cc1cc2ncn(C(=O)N3CCCC3)c2cc1C | -2.26
CCCS(=O)(=O)N1CCN(Cc2ccco2)CC1 | -7.67
COC[C@@]12CCO[C@@H]1CCN(C(=O)COc1ccccc1OC)C2 | -11.3
CCN1CC2(CC1=O)CN(C(=O)c1ccco1)CCN(C(=O)N(C)C)C2 (stereo not given) | -5.37
Cc1cccc(CN2C[C@@H]3COC[C@]3(COc3ccc(C#N)cn3)C2)n1 | -0.115
CCS(=O)(=O)N1CCC(c2nc3ccc(-c4ccccc4)cn3n2)CC1 | -5.21
Cc1nc(CN2C(=O)C[C@@H]3[C@@H]2CCN3C(=O)C2CCOCC2)cs1 | -8.18
c1cncc(OCC2CN(Cc3ccco3)Cc3nccn3C2)c1 (stereo not given) | 21.3
CCOCC(=O)N1C[C@@H]2COC[C@H](c3nc(C)no3)[C@@H]2C1 | -2.34
Cc1noc([C@@H]2CC[C@@H]3[C@@H](CCN3S(=O)(=O)C3CC3)O2)n1 | 2.67
CN(C)C(=O)CO[C@@H]1CC[C@H]2[C@H]1OCCN2C(=O)C1CCOCC1 | -3.79
CCn1nnc2c1C(COC)CN(C(=O)COc1ccccc1)C2 (stereo not given) | 0.105
COCC1c2c(cnn2C)CCN1Cc1ccoc1 (stereo not given) | -3.89
C[C@H]1C[C@@H]2CCN(C(=O)c3ccncn3)C[C@H]2O1 | -0.838
COCC1COCCC12CCN(C(=O)CCOc1ccccc1)CC2 (stereo not given) | -2.28
Cn1cc(-c2cnc(N3CCCC3)nc2)cc1C(=O)O | 1.36
CCO[C@@H]1CC[C@H]2[C@H]1OCCN2C(=O)C1CCOCC1 | -2.08
CC(C)NC(=O)C1CN(C(=O)c2ccc(F)cc2)CC12CCOCC2 (stereo not given) | 23.6
Cc1nc(N2CCOCC2)nc2c1CCN(C(=O)NC1CCCC1)CC2 | 20.6
CCN1C[C@H]2CCN(C(C)=O)CC[C@H]2S1(=O)=O | -14.5
O=c1cc(Cn2ccnc2)nc2n1CCCN(Cc1ccsc1)C2 | -19.5
CC1CCc2nn(CCNC(=O)Cc3cccs3)c(=O)cc2C1 (stereo not given) | -2.17

Structure (SMILES) | cytotoxicity at 70.5 h [%]
CC1CCc2nn(CCNC(=O)c3ccco3)c(=O)cc2C1 (stereo not given) | -5.13
CNC(=O)C1(CCCc2ccccn2)CN(Cc2coc(C)n2)C1 | -5.7
CN1CCC(Cc2cnc3ccccc3c2)C1 (stereo not given) | 1.19
CNC(=O)c1c[nH]nc1C1CCCN1c1ncccn1 (stereo not given) | -4.93
Cc1cc2nccc(C3CCCN(C(=O)c4cnccn4)C3)n2n1 (stereo not given) | 0.174
CN(C)C(=O)Cn1c(C2CC2)c(CN2CCOCC2)c2cccnc21 | -1.8
CSc1ncc(C(=O)N(C)C(C)Cc2ccccn2)cn1 (stereo not given) | -5.33
Cc1cc(C)n(CC(=O)N2CCC(c3cc4cccnc4[nH]3)CC2)n1 | 29.7
Cc1cc(C)n(CC(=O)N2CCCC2c2cc3cccnc3[nH]2)n1 (stereo not given) | 2.7
CNc1ncc(CN2CCC(CCc3ccccc3)CC2)cn1 | -1.31
COc1cc2c(cc1CN1CCc3sccc3C1C)OCO2 (stereo not given) | 2.98
Cc1cnc2[nH]c(C(F)(F)F)c(CN3CCCC(CO)C3)c2c1 (stereo not given) | 3.56
COCC(=O)N1CCC(c2cc(-c3ccc(OC)cc3)n[nH]2)C1 (stereo not given) | 10.4
Cc1ccc(CN2CCc3c(nc4cc(C5CC5)nn4c3O)C2)s1 | 18.3
COCC(=O)N1CCC(c2cc(-c3ccc(C)cc3)n[nH]2)C1 (stereo not given) | 14.4
CC1CCN(Cc2c(C(C)C)[nH]c3ncccc23)CC1 | -8.35
COc1ccc2c(c1)NC(C1CCNCC1)NS2(=O)=O (stereo not given) | -4.76
COc1ccc2c(c1)NC(C1CCN(C(=O)C3CC3)CC1)NS2(=O)=O (stereo not given) | -4.62
CC(C)OCCCNS(=O)(=O)c1ccc2c(c1)NC(=O)C(C)O2 (stereo not given) | -4.7
CCN(CC)CCCNCc1cc2cc(C)ccc2[nH]c1=O | 7.87
CN1CCC(c2cncc(Cl)n2)CC1 | -5.05
CS(=O)(=O)N1CCCC(Cc2cnc(Br)cn2)CC1 (stereo not given) | 13.7

Structure (SMILES) | cytotoxicity at 70.5 h [%]
Cc1cc(C(=O)N[C@@H]2CCC[C@@H](N3CCOCC3)[C@@H]2O)no1 | -6.42
Cc1noc(C)c1CCC(=O)NCC1(O)CCN(c2ccccn2)C1 (stereo not given) | -6.52
CN1CCCC(c2cccc(-c3cccc(F)c3)n2)C1 (stereo not given) | -5.53
Cc1cc(Oc2ccccc2C)nc(C2CCCN2)n1 (stereo not given) | 9.24
COCCC(=O)N1CCCC(c2n[nH]cc2C)C1 (stereo not given) | 15.1
NC(=O)c1cc(CC2CCCN(c3cnccn3)C2)ncn1 (stereo not given) | -6.16
CCCc1cc(C(=O)N[C@@H]2CCC[C@@H](N3CCCC3)[C@@H]2O)no1 | -4
Cc1ncc(CN2CCC(c3nc(O)cc(-c4ccsc4)n3)CC2)cn1 | -3.5
c1ncc(CN2CC(Cc3nccc4cc[nH]c34)C2)cn1 | -1.22
CC(C)c1nnc(CCC(=O)N2CCOC(c3cnccn3)C2)o1 (stereo not given) | -5.45
O=C(O)c1ccccc1-n1cnc(CN2CCCCCC2)c1 | -1.66
CN1CCNCC(Cc2cnc3ccccc3c2)C1 (stereo not given) | -3.02
Fc1ccc(Oc2nccnc2C2CCN(C3CCOCC3)CC2)cc1 | -3.07
CN1CCCC(c2cccc(-c3cccc(Cl)c3)n2)C1 (stereo not given) | 18
c1ccc(CN2CCCC[C@H]3CN(c4ncccn4)C[C@H]32)cc1 | -6.75
c1ccc2ncc(CC3CCNC3)cc2c1 (stereo not given) | 19.8
COc1ccccc1C(=O)N1C[C@@H]2CCCCN(CC(N)=O)[C@@H]2C1 | -11.4
O=S(=O)(c1ccccc1)N1C[C@@H]2CCCCN(Cc3cccs3)[C@@H]2C1 | -17.2
Cc1cnc(CC2COCCN(C(=O)c3cncnc3)C2)cn1 (stereo not given) | -5.02
CCS(=O)(=O)N1C[C@@H](O)[C@H](N2CCc3ccccc3C2)C1 | -5.96
Cc1ncc(C(=O)N2CCCC2(C)C(=O)N2CCOCC2)c(C)n1 (stereo not given) | -7.99
Cc1ccc(S(=O)(=O)N2CCCC(c3n[nH]cc3C(=O)N(C)C)C2)cc1 (stereo not given) | 9.91

Structure (SMILES) | cytotoxicity at 70.5 h [%]
CCN(CC)C(=O)CN1CCC(c2nc(C)c3c(n2)N(C)CCC3)CC1 | 17.6
CC(C)C(=O)N1CCCC1c1nc(N(C)C)ncc1-c1ccc(Cl)cc1 (stereo not given) | 6.28
NC(=O)c1cccc(C2CCN(c3ncccn3)CC2)n1 | -13.4
Cc1cc(-c2ccccc2)nc(C2CCCN2S(C)(=O)=O)n1 (stereo not given) | -5.33
CC(=O)Nc1nccn1Cc1ccccc1Cl | -2.67
CCC(c1ccncc1)N(C)S(C)(=O)=O (stereo not given) | -1.1
O=C(Nc1cccnc1N1CCSCC1)c1ccc2c(c1)CCO2 | 53.2
CCn1nnnc1-c1cccc(NCc2nc(C)ccc2O)c1 | -6.25
c1cc2occc2c(N2CCCC(c3nncn3C3CC3)C2)n1 (stereo not given) | 17.6
COCCC(C)NS(=O)(=O)c1ccc(C)c(N(C)C)c1 (stereo not given) | -2.25
CC(c1cccnc1)N(C)S(C)(=O)=O (stereo not given) | -2.51
O=C(CCc1nnc(-c2ccccc2)o1)N1CCCC1c1ccc[nH]1 (stereo not given) | -3.43
CC(=O)NC1CCN(c2cnc(C3CCNCC3)cn2)CC1 | -3.96
CC(=O)N1CCN(c2cncc(C3CCNCC3)n2)CC1 | 34.1
CN(C)C(=O)Cn1c(C2CC2)c(CN2CCC(O)CC2)c2cccnc21 | 12.5
CN(C)C(=O)c1sc2ncccc2c1C1CNCCO1 (stereo not given) | -6.3
c1ccc(CN2CCNCC(Cc3cnccn3)C2)cc1 (stereo not given) | -1.06
Fc1ccccc1CNc1ccnc(C2CCNCC2)c1 | 18
O=C(N[C@H]1CN[C@H]2CCCO[C@H]21)c1cccnc1 | -10.1
O=C(Cc1cccs1)N1C[C@@H]2OCCN(CC3CCCC3)[C@@H]2C1 | -3.16
CCc1ccc(CN2CC[C@H]3C[C@H](c4nnc(C)[nH]4)O[C@@H]3C2)o1 | -1.93
Cn1cc(C(=O)NC[C@@H]2OC[C@H]3CN(Cc4ccco4)CC[C@H]32)cn1 | -7.09

Structure (SMILES) | cytotoxicity at 70.5 h [%]
COCCO[C@@H]1CCN(C(=O)c2ccc(C)o2)[C@@H]1Cc1cccnc1 | 4.05
Cc1noc([C@@H]2CC[C@@H]3[C@@H](CCN3S(=O)(=O)c3cccnc3)O2)n1 | -4.36
CC(C)NC(=O)N1CCN(CC2CC2)CC2(CC(=O)N(C)C2)C1 (stereo not given) | -4.82
Fc1cccc(N2C[C@H]3CCN(c4cccnc4)C[C@H]3C2)c1 | -5.68
CCCS(=O)(=O)N1CCC2(CN(c3ccsc3)C(=O)CN2C)C1 (stereo not given) | -3.38
O=C(NCc1cccs1)[C@H]1CC[C@@H]2[C@@H](CCN2c2ncccn2)O1 | 2.87
CC1=N[C@@]2(CC[C@@H]3CN(CC(=O)N(C)C)C[C@@H]32)C(=O)N1CC(C)C | 52.3
CCC1=N[C@@]2(CC[C@@H]3CN(CC(=O)N(C)C)C[C@@H]32)C(=O)N1CC1CC1 | -13.2
CC(=O)NC1CCN(c2ccnc(C3CCNCC3)c2)CC1 | -5.48
Cc1cccc(COC[C@@H]2CC[C@H]3[C@H](CCN3Cc3ccco3)O2)n1 | -6.18
Cc1nnc(N2CCCC3(CN(Cc4ccc(C)s4)CCO3)C2)o1 (stereo not given) | -8.9
c1cncc(OC[C@]23COC[C@H]2CN(Cc2cccs2)C3)c1 | -7.3
COCC1c2c(cnn2CC2CCOCC2)CCN1Cc1ccoc1 (stereo not given) | 3.09
COc1ccc(CN2C[C@@H]3COC[C@]3(COc3cccnc3)C2)cc1 | -7.11
CCc1ncnc2c1CCN(Cc1ccccn1)CC2 | 28
COC[C@@H]1CCC[C@]12CN(Cc1cccc(C)n1)CCO2 | -14.3
CN1CC(=O)N(c2ccccc2)CC12CCN(Cc1cccnc1)C2 (stereo not given) | -11.3
Cc1ccc(CN2CCC(O)(Cn3nc(-c4cccs4)oc3=O)CC2)o1 | -1.27
CN(C)CCN(Cc1ccccn1)Cc1ccnn1C1CCCCO1 (stereo not given) | -2.87
Fc1ccc(CN[C@@H]2COC[C@H]2c2ccc(F)cc2)cc1 | 0.602
Cc1ccc(CN(CCN(C)C)Cc2ccnn2C2CCCCO2)o1 (stereo not given) | -3.26
CN(C)CCCN(Cc1ccco1)Cc1ccnn1C1CCCCO1 (stereo not given) | -8.64

From ChEMBL document CHEMBL3507680, “University of Dundee, Gates Library screen for HepG2 cell viability”
